Source: ChEMBL document CHEMBL1147400, “Novel antimitotic dibenzocyclo-octadiene lignan constituents of the stem bark of Steganotaenia araliacea” (1993)
Values after ≈ are worked out from the molar mass of the structure shown.

Legend:
Bos taurus [1] = species: Bos taurus; test: Inhibition of calf thymus tubulin polymerization by turbidimetric analysis
[2] = Antimitotic activity against rat ASK cells assessed as reversal of astrocyte morphology at 20 ug/ml; type: functional
[3] = Cytotoxicity against multidrug-resistant human KBV1 cells; type: functional; conditions: KB-V1, read-out: ED50 (the source's name)
[4] = Cytotoxicity against human BC1 cells; type: functional; conditions: read-out: ED50 (the source's name)
SK-MEL-2 = test: Cytotoxicity against human SK-MEL-2 cells; type: functional; conditions: read-out: ED50 (the source's name)
Col2 = test: Cytotoxicity against human Col2 cells; type: functional; conditions: read-out: ED50 (the source's name)
A-431 = test: Cytotoxicity against human A431 cells; type: functional; conditions: read-out: ED50 (the source's name)
Lu1 = test: Cytotoxicity against human Lu1 cells; type: functional; conditions: read-out: ED50 (the source's name)
KB = test: Cytotoxicity against human KB cells; type: functional; conditions: read-out: ED50 (the source's name)
ZR-75-1 = test: Cytotoxicity against human ZR-75-1 cells; type: functional; conditions: read-out: ED50 (the source's name)
[5] = Cytotoxicity against human U373 cells; type: functional, U-373MG ATCC; conditions: U373 MG, read-out: ED50 (the source's name)
HT = test: Cytotoxicity against human HT cells; type: functional; conditions: read-out: ED50 (the source's name)
LNCaP = test: Cytotoxicity against human LNCAP cells; type: functional; conditions: read-out: ED50 (the source's name)
[6] = Antimitotic activity against rat ASK cells assessed as reversal of astrocyte morphology at 100 ug/ml; type: functional
[7] = Antimitotic activity against rat ASK cells assessed as reversal of astrocyte morphology at 4 ug/ml; type: functional
[8] = Antimitotic activity against rat ASK cells assessed as reversal of astrocyte morphology at 0.0064 ug/ml; type: functional
[9] = Antimitotic activity against rat ASK cells assessed as reversal of astrocyte morphology at 0.8 ug/ml; type: functional
Bos taurus [10] = species: Bos taurus; test: Inhibition of calf brain tubulin polymerization by turbidimetric analysis
[11] = Antimitotic activity against rat ASK cells assessed as reversal of astrocyte morphology at 0.16 ug/ml; type: functional
[12] = Antimitotic activity against rat ASK cells assessed as reversal of astrocyte morphology at 0.032 ug/ml; type: functional
[13] = Antimitotic activity against rat ASK cells assessed as reversal of astrocyte morphology at 0.00128 ug/ml; type: functional

SMILES	Activity [2] [%]	EC50 [3] [µg/mL]	EC50 [4] [µg/mL]	EC50 (SK-MEL-2) [µg/mL]	EC50 (Col2) [µg/mL]	EC50 (A-431) [µg/mL]	EC50 (Lu1) [µg/mL]	EC50 (KB) [µg/mL]	EC50 (ZR-75-1) [µg/mL]	EC50 [5] [µg/mL]	EC50 (HT) [µg/mL]	EC50 (LNCaP) [µg/mL]	Activity [6] [%]	Activity [7] [%]	Activity [8] [%]	Activity [9] [%]	ED50 (Bos taurus [10]) [µg/mL]	Activity [11] [%]	Activity [12] [%]	also measured
COC[C@@H]1Cc2cc3c(cc2-c2c(c(OC)cc(OC)c2OC)C[C@H]1C(=O)OC)OCO3	100	0.8 (≈ 1.8 µM)	17.3 (≈ 38.9 µM)	14.9 (≈ 33.5 µM)	9.6 (≈ 21.6 µM)	6.7 (≈ 15.1 µM)	5.5 (≈ 12.4 µM)	9.2 (≈ 20.7 µM)	4.7 (≈ 10.6 µM)	7.8 (≈ 17.5 µM)	11.5 (≈ 25.9 µM)	> 20	100	0	–	–	–	–	–	ED50 (Bos taurus [1]): 59.3 µg/mL (≈ 133 µM)
COc1cc2c(c(OC)c1OC)-c1cc3c(cc1C(=O)[C@H]1COC(=O)[C@@H]1C2)OCO3	100	7.1 (≈ 17.2 µM)	1.8 (≈ 4.36 µM)	> 20	2.1 (≈ 5.09 µM)	> 20	1 (≈ 2.42 µM)	1.5 (≈ 3.64 µM)	> 20	> 20	0.7 (≈ 1.7 µM)	2 (≈ 4.85 µM)	100	100	0	100	68.2 (≈ 165 µM)	0	0	–
COc1cc2c(c(OC)c1OC)-c1ccc(OC)c(=O)cc1[C@@H](NC(C)=O)CC2 [COLCHICINE]	100	3.5 (≈ 8.76 µM)	0.008 (≈ 0.02 µM)	0.007 (≈ 0.0175 µM)	0.001 (≈ 0.0025 µM)	0.002 (≈ 0.00501 µM)	0.02 (≈ 0.0501 µM)	0.02 (≈ 0.0501 µM)	0.1 (≈ 0.25 µM)	0.005 (≈ 0.0125 µM)	0.004 (≈ 0.01 µM)	0.06 (≈ 0.15 µM)	100	100	0	70	7.4 (≈ 18.5 µM)	0	0	Activity [13]: 0%
COC[C@@H]1Cc2cc3c(cc2-c2c(ccc(OC)c2OC)C[C@@H]1C(=O)OC)OCO3	0	> 20	> 20	> 20	> 20	> 20	> 20	> 20	> 20	> 20	> 20	> 20	40	0	–	0	–	–	–	ED50 (Bos taurus [1]): 76.9 µg/mL (≈ 186 µM)
COc1cc2c(c(OC)c1OC)-c1cc3c(cc1[C@@H](OC(C)=O)C1COC(=O)[C@H]1C2)OCO3 (stereo not given in full) [STEGANACIN]	100	0.2 (≈ 0.438 µM)	0.6 (≈ 1.31 µM)	> 20	0.4 (≈ 0.876 µM)	0.2 (≈ 0.438 µM)	0.4 (≈ 0.876 µM)	0.1 (≈ 0.219 µM)	5 (≈ 11 µM)	0.1 (≈ 0.219 µM)	0.7 (≈ 1.53 µM)	–	100	100	–	100	1.7 (≈ 3.72 µM)	100	0	Activity (Bos taurus [1]): Dose-dependent effect
C/C=C(/C)C(=O)O[C@H]1c2cc3c(cc2-c2c(cc(OC)c(OC)c2OC)C[C@H]2C(=O)OC[C@@H]21)OCO3 [STEGANANGIN]	100	0.7 (≈ 1.41 µM)	0.7 (≈ 1.41 µM)	0.7 (≈ 1.41 µM)	0.6 (≈ 1.21 µM)	> 20	0.4 (≈ 0.806 µM)	0.4 (≈ 0.806 µM)	1 (≈ 2.01 µM)	> 20	0.6 (≈ 1.21 µM)	0.9 (≈ 1.81 µM)	100	100	0	100	38.1 (≈ 76.7 µM)	50	0	–
C/C=C(/C)C(=O)O[C@@H]1c2cc3c(cc2-c2c(cc(OC)c(OC)c2OC)C[C@H]2C(=O)OC[C@H]12)OCO3 [EPISTEGANANGIN]	0	0.9 (≈ 1.81 µM)	1.1 (≈ 2.22 µM)	20 (≈ 40.3 µM)	> 20	> 20	6.9 (≈ 13.9 µM)	7.4 (≈ 14.9 µM)	13.9 (≈ 28 µM)	> 20	7.4 (≈ 14.9 µM)	> 20	100	0	–	0	78.1 (≈ 157 µM)	–	–	–
COc1cc2c(c(OC)c1OC)C[C@H]1COC(=O)[C@@H]1Cc1c-2cc(OC)c(OC)c1OC [STEGANOLIDE A]	100	0.8 (≈ 1.8 µM)	8 (≈ 18 µM)	9.2 (≈ 20.7 µM)	5.1 (≈ 11.5 µM)	5.5 (≈ 12.4 µM)	5.5 (≈ 12.4 µM)	4.9 (≈ 11 µM)	8.9 (≈ 20 µM)	3.1 (≈ 6.97 µM)	6.5 (≈ 14.6 µM)	9 (≈ 20.2 µM)	100	0	–	0	–	0	0	–
